For ten compounds, EC50 results are on record in patent US20230295087A1, “AGONISTS OF ROR GAMMAt” (BRISTOL-MYERS SQUIBB COMPANY, priority 2019, published 2023).

One may read the EC50 as the midpoint of the concentration-response curve. The low end stands for an effect from little substance, the high end for a need for much substance.

The assay has as its target T1, human RORgT (Homo sapiens, UniProt P51449).
T1 construct: expressed in transfected cells
T1 sequence (P51449 267-516): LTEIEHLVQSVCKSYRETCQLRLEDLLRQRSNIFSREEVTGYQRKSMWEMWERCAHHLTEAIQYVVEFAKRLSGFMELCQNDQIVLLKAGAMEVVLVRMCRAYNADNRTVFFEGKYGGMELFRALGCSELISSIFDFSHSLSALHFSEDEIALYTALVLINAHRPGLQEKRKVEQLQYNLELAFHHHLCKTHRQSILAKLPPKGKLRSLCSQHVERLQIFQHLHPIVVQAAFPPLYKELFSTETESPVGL
The assay can be described thus: RORgT Gal4 Luciferase Reporter Gene Assay. The assay is classed as cell-based. The following applies: engineered Jurkat cells overexpressing RORgT (LBD or full length) fused with Gal4 Luc reporter; 18 hours at 37° C.; luminescence. The procedure:
RORgT Gal4 Luciferase Reporter Gene Assay
25 µL of cryopreserved Jurkat cells over expressing ligand binding domain (LBD) of RORgT (aa267-516, NM_005060) and Gal4 Luc, or full length of human RORgT and Gal4 Luc, were plated in 384-well solid white cell culture plates (PerkinElmer 6007899), with a density of 10,000 cells/well in RPMI 1640 cell culture media (Gibco 11875-085). The media contained 0.1% BSA, 10 mM HEPES (Gibco 15360-080), […] Sodium Pyruvate (Gibco 11360-040), […] Hygromycin B (Invitrogen 10687-010), and […] Blasticidin (Invitrogen R210-01).
100 nL of compound at varying concentrations in 3-fold serial dilution, with final concentrations ranging from 40 µM to 0.67 nM, were added to the cells using Labcyte Echo 550. The compound and the cells were incubated for 18 hours at 37° C. in a cell culture incubator. Cells were then lysed with 15 uL of Steady-Glo Luciferase Assay reagent (Promega EZ550), followed by centrifuging the assay plates at 1500 RPM for 1 minute. Subsequently, the plates were read on the Envision (PerkinElmer). The inhibition of constitutive activity of RORgT achieved by graded concentrations of compound was calculated as a percentage of the luminescence signal window reduction over a control compound.
For orientation: Reporter assays use an easily measured gene product as a stand-in for the process of interest.

As to `O=C(CC1CCS(=O)(=O)C1)N1CC[C@@]2(S(=O)(=O)c3ccc(F)cc3)c3ccc(OCc4c(F)cccc4C(F)(F)F)cc3CC[C@@H]12` (mixture of isomers) [Example 17], the EC50 was 8.2 nM.

`O=C(O)[C@H]1CC[C@H](C(=O)N2CC[C@@]3(S(=O)(=O)c4ccc(F)cc4)c4ccc(OCc5c(F)cccc5Cl)cc4CC[C@@H]23)CC1` [Example 1, (1r,4r)-4-[(3aR,9bR)-7-[(2-chloro-6-fluorophenyl)methoxy]-9b-(4-fluorobenzenesulfonyl)-1H,2H,3H,3aH,4H,5H,9bH-benzo[e]indole-3-carbonyl]cyclohexane-1-carboxylic acid]: a half-maximal effect (EC50) was put at 8.4 nM.

For the compound `O=C(O)[C@H]1CC[C@H](C(=O)N2CC[C@@]3(S(=O)(=O)c4ccc(F)cc4)c4ccc(CCc5c(Cl)cccc5Cl)cc4CC[C@@H]23)CC1` [Example 2, (1r,4r)-4-[(3aR,9bR)-7-[2-(2,6-dichlorophenyl)ethyl]-9b-(4-fluorobenzenesulfonyl)-1H,2H,3H,3aH,4H,5H,9bH-benzo[e]indole-3-carbonyl]cyclohexane-1-carboxylic acid], the EC50 is 6.8 nM.

The compound `O=C(O)[C@H]1CC[C@H](C(=O)N2CC[C@@]3(S(=O)(=O)c4ccc(F)cc4)c4ccc(Oc5c(F)cccc5C(F)(F)F)cc4CC[C@@H]23)CC1` [Example 4, (1R,4r)-4-((3aR,9bR)-7-(2-fluoro-6-(trifluoromethyl)phenoxy)-9b-((4-fluorophenyl)sulfonyl)-2,3,3a,4,5,9b-hexahydro-1H-benzo[e]indole-3-carbonyl)cyclohexane-1-carboxylic acid] returned an EC50 of 10 nM.

Compound `O=C(O)[C@H]1CC[C@H](C(=O)N2CC[C@@]3(S(=O)(=O)c4ccc(F)cc4)c4ccc(Cc5c(F)cccc5Cl)cc4CC[C@@H]23)CC1` [Example 5, (1R,4r)-4-((3aR,9bR)-7-(2-chloro-6-fluorobenzyl)-9b-((4-fluorophenyl)sulfonyl)-2,3,3a,4,5,9b-hexahydro-1H-benzo[e]indole-3-carbonyl)cyclohexanecarboxylic acid] had an EC50 of 7.1 nM.

The compound `O=C(O)[C@H]1CC[C@H](C(=O)N2CC[C@@]3(S(=O)(=O)c4ccc(F)cc4)c4ccc(COc5c(Cl)cccc5Cl)cc4CC[C@@H]23)CC1` [Example 6, (1R,4r)-4-((3aR,9bR)-7-((2,6-dichlorophenoxy)methyl)-9b-((4-fluorophenyl)sulfonyl)-2,3,3a,4,5,9b-hexahydro-1H-benzo[e]indole-3-carbonyl)cyclohexanecarboxylic acid] came in with an EC50 of 2.4 nM.

On to `CC1(C(=O)N2CC[C@@]3(S(=O)(=O)c4ccc(F)cc4)c4ccc(OCc5c(F)cccc5Cl)cc4CC[C@@H]23)CCS(=O)(=O)CC1` [Example 7, ((3aR,9bR)-7-((2-chloro-6-fluorobenzyl)oxy)-9b-((4-fluorophenyl)sulfonyl)-4,5-dihydro-1H-benzo[e]indol-3(2H,3aH,9bH)-yl)(4-methyl-1,1-dioxidotetrahydro-2H-thiopyran-4-yl)methanone], for which a half-maximal response (EC50) required 22 nM.

`C[C@]1(C(=O)N2CC[C@@]3(S(=O)(=O)c4ccc(F)cc4)c4ccc(OCc5c(F)cccc5Cl)cc4CC[C@@H]23)CC[C@H](C(=O)O)CC1` [Example 9, (1R,4r)-4-((3aR,9bR)-7-((2-chloro-6-fluorobenzyl)oxy)-9b-((4-fluorophenyl)sulfonyl)-2,3,3a,4,5,9b-hexahydro-1H-benzo[e]indole-3-carbonyl)-4-methylcyclohexanecarboxylic acid] showed an EC50 of 17 nM.

Consider `O=C(O)[C@H]1CC[C@H](CN2CC[C@@]3(S(=O)(=O)c4ccc(F)cc4)c4ccc(OCc5c(F)cccc5C(F)(F)F)cc4CC[C@@H]23)CC1` [Example 10], for which a half-maximal response (EC50) required 39 nM.

`Cc1ccccc1Cc1ccc2c(c1)CC[C@H]1N(C(=O)[C@]3(C)CC[C@@H](C(=O)O)CC3)CC[C@@]21S(=O)(=O)c1ccc(F)cc1` [Example 12, (1R,4r)-4-((3aR,9bR)-9b-((4-fluorophenyl)sulfonyl)-7-(2-methylbenzyl)-2,3,3a,4,5,9b-hexahydro-1H-benzo[e]indole-3-carbonyl)-4-methylcyclohexane-1-carboxylic acid]: the EC50 is 19 nM.
